Laboratory results reported in patent US20230277562A1, “USE OF C[…] THE TREATMENT OF SEIZURES ASSOCIATED WITH RARE […] SYNDROMES RELATED TO GENETIC ABNORMALITIES” (GW Research Limited, priority 2020, published 2023).
Entries after “also recorded” stand apart in the source; their conditions may differ.

System: seizures associated with congenital disorder of glycosylation 1P (tonic and myoclonic seizures)
Assay: Open label, expanded-access program of botanically derived purified CBD: seizure frequency in a patient with congenital disorder of glycosylation 1P
Format: in vivo, human
Details: for Seizure frequency, Tonic: baseline 448.0; for Seizure frequency, Myoclonic: baseline 700.0
Description: The subject was required to be on one or more AEDs at stable doses for a minimum of two weeks prior to baseline and to have stable vagus nerve stimulation (VNS) settings and ketogenic diet ratios for a minimum of four weeks prior to baseline.
Dose was then increased weekly by 5 mg/kg/day to a goal of 25 mg/kg/day.
A maximum dose of 50 mg/kg/day could be utilised for the patient if they were tolerating the medication but had not achieved seizure control; the patient had further weekly titration by 5 mg/kg/day.
Modifications were made to concomitant AEDs as per clinical indication.
Seizure frequency, intensity, and duration were recorded by caregivers in a diary during a baseline period of at least 28 days. Changes in seizure frequency relative to baseline were calculated after at least 2 weeks and at defined timepoints of treatment.
Patients may be defined as responders if they had more than 50% reduction in seizure frequency compared to baseline. The percent change in seizure frequency was calculated as follows: […]
The percent change of seizure frequency may be calculated for any time interval where seizure number has been recorded. For the purpose of this example the percent change of seizure frequency for the end of the treatment period was calculated as follows: […]

[1] = Patient 1, 2 weeks, dose CBD 9.1 mg/kg/day
[2] = Patient 1, 4 weeks, dose CBD 18.2 mg/kg/day
[3] = Patient 1, 8 weeks, dose CBD 26.3 mg/kg/day
[4] = Patient 1, 12 weeks, dose CBD 19.0 mg/kg/day
[5] = Patient 1, 16 weeks, dose CBD 13.3 mg/kg/day
[6] = Patient 1, treated for 132 weeks, relative to baseline

C=C(C)[C@@H]1CCC(C)=C[C@H]1c1c(O)cc(CCCCC)cc1O [CBD, cannabidiol]
Seizure frequency, Tonic [1]: 328.0 | Seizure frequency, Myoclonic [1]: 384.0 | Seizure frequency, Tonic [2]: 231.2 | Seizure frequency, Myoclonic [2]: 424.8 | Seizure frequency, Tonic [3]: 52.0 | Seizure frequency, Myoclonic [3]: 608.0 | Seizure frequency, Tonic [4]: 22.8 | Seizure frequency, Myoclonic [4]: 986.0 | Seizure frequency, Tonic [5]: 20.0 | Seizure frequency, Myoclonic [5]: 1251.2 | reduction in myoclonic seizures over the treatment period [6]: 72.1% | reduction in tonic seizures over the treatment period [6]: 57.2% | effect on frequency/number of tonic and myoclonic seizures (in words) (patient with congenital disorder of glycosylation 1P): effective in reducing the frequency of tonic and myoclonic seizures; also recorded: significantly reduce the number of seizures; also recorded: significant reduction in tonic and myoclonic seizures
